Laboratory results: ChEMBL document CHEMBL5465560, “Selectivity Literature for EUbOPEN Chemogenomic Library” (2024)

How the values were obtained:
[1] = biological target: Protein arginine N-methyltransferase 8 (Homo sapiens, UniProt Q9NR22); test: Selectivity interaction (Methyltransferase screen (Scintillation proximity assays)) EUB0000255b PRMT8
[2] = biological target: T1, Calcium/calmodulin-dependent protein kinase type IV (Homo sapiens) (UniProt Q16566); test: Selectivity interaction (KinomeScan (DiscoverX)) EUB0000229b CAMK4; settings: at 10 µM
T1 sequence (whole entry): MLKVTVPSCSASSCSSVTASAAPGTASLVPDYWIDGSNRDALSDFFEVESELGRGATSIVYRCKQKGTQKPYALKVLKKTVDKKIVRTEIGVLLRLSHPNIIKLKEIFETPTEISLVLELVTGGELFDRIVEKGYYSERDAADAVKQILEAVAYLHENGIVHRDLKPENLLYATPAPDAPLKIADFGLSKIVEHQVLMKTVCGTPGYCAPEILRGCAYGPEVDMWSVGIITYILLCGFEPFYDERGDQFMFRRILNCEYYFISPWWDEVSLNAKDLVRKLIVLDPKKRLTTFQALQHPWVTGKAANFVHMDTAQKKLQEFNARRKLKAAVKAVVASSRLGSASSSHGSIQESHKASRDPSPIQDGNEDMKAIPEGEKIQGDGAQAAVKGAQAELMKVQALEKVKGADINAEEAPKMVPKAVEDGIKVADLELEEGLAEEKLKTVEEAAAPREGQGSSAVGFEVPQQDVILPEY

[3] = biological target: Cyclin-dependent kinase 5 (Homo sapiens, UniProt Q00535); test: Selectivity interaction (KinomeScan (DiscoverX)) EUB0000229b CDK5; settings: at 10 µM
Cyclin-dependent kinase 5, sequence (Q00535 whole entry, looked up): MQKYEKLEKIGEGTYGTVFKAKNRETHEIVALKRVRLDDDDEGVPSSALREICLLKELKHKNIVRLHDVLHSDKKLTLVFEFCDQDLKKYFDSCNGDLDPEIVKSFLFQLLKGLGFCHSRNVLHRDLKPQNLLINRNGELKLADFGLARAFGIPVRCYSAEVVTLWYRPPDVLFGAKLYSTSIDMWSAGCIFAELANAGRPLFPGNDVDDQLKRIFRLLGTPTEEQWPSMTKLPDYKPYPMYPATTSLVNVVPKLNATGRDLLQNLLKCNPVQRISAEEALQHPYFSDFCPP

[4] = biological target: T2, Tyrosine-protein kinase JAK3 (Homo sapiens) (UniProt P52333); test: Selectivity interaction (KinomeScan (DiscoverX)) EUB0000229b JAK3; settings: at 10 µM
T2 sequence (whole entry): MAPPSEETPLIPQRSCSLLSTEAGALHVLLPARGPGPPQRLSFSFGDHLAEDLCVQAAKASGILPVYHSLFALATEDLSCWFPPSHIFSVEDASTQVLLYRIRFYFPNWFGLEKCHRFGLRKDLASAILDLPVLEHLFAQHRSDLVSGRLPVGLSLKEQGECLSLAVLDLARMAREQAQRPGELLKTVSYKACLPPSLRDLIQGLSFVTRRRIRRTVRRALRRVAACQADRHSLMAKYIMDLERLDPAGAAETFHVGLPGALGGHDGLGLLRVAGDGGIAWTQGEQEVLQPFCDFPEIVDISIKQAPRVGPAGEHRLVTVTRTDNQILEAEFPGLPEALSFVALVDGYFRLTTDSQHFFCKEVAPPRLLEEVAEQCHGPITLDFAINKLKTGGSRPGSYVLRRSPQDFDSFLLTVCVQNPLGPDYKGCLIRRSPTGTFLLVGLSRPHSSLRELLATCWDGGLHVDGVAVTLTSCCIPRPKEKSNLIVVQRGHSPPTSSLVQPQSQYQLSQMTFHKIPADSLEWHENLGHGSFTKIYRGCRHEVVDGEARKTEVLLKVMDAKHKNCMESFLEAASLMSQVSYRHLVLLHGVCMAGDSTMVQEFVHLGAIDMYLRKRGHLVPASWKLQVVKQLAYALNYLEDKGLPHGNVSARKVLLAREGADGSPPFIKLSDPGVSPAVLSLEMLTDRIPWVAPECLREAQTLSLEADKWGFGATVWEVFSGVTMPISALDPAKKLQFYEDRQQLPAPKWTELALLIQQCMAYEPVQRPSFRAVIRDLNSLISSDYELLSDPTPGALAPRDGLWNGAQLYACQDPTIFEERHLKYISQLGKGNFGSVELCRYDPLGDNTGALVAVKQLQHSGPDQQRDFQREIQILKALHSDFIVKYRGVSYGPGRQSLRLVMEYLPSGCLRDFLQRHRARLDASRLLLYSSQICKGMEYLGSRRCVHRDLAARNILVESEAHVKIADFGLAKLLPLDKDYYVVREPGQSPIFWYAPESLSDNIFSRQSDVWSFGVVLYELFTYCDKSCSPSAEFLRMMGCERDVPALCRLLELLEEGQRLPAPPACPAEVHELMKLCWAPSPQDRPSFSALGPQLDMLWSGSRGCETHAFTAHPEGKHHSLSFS

[5] = biological target: Mitogen-activated protein kinase kinase kinase kinase 5 (Homo sapiens) (UniProt Q9Y4K4); test: Selectivity interaction (KinomeScan (DiscoverX)) EUB0000092b MAP4K5; settings: at 10 µM
Mitogen-activated protein kinase kinase kinase kinase 5 (Homo sapiens), sequence (Q9Y4K4 whole entry, looked up): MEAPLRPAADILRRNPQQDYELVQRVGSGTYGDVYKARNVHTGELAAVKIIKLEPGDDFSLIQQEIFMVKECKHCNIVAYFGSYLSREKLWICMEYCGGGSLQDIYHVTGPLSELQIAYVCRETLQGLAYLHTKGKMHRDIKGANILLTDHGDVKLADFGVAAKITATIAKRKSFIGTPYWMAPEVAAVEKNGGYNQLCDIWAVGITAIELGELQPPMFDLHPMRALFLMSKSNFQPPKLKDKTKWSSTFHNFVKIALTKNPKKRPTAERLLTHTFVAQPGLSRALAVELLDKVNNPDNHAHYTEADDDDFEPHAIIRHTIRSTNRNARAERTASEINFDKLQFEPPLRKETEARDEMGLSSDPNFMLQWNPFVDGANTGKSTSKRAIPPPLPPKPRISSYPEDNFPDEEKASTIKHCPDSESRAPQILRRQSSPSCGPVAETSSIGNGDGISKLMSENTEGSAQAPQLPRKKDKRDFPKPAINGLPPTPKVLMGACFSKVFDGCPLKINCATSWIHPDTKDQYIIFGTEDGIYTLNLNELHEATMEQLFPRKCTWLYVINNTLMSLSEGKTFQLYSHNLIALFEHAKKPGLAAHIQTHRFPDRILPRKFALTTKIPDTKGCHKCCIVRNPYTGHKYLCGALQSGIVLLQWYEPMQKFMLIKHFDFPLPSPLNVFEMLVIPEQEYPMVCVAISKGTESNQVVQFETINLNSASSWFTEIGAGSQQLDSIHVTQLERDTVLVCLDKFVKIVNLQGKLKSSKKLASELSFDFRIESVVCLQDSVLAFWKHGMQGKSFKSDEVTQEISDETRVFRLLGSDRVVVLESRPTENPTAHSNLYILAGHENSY

[6] = biological target: Dual specificity protein kinase CLK4 (Homo sapiens, UniProt Q9HAZ1); test: Selectivity interaction (KinomeScan (DiscoverX)) EUB0001550a CLK4; settings: at 1 µM
Dual specificity protein kinase CLK4, sequence (Q9HAZ1 whole entry, looked up, canonical isoform): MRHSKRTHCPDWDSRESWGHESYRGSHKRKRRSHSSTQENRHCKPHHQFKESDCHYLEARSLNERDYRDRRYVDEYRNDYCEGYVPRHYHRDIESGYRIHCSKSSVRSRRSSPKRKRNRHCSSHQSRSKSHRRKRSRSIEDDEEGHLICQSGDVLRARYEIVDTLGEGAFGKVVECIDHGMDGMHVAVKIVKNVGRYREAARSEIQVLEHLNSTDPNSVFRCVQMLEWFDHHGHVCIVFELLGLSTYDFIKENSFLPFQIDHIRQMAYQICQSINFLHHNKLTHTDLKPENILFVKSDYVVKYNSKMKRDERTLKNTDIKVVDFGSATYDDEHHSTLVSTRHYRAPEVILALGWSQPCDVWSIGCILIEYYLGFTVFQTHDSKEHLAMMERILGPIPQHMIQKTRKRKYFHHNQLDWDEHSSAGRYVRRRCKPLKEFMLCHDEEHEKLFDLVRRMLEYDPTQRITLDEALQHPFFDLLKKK

[7] = biological target: Casein kinase I isoform delta (Homo sapiens, UniProt P48730); test: Selectivity interaction (ProQinase) EUB0000171b CSNK1D
Casein kinase I isoform delta, sequence (P48730 whole entry, looked up, canonical isoform): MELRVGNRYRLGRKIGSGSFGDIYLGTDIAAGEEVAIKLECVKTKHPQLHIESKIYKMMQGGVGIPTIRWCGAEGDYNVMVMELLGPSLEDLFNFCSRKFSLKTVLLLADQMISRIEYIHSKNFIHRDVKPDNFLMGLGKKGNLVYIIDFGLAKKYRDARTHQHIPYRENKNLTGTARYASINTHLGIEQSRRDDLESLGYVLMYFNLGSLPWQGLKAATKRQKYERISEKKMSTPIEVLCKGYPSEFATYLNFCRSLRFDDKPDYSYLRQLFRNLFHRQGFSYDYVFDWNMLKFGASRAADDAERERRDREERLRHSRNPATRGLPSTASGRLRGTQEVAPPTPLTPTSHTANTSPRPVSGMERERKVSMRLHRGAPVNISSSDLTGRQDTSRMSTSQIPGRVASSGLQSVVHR

[8] = biological target: Death-associated protein kinase 2 (Homo sapiens) (UniProt Q9UIK4); test: Selectivity interaction (ProQinase) EUB0000171b DAPK2
Death-associated protein kinase 2 (Homo sapiens), sequence (Q9UIK4 whole entry, looked up): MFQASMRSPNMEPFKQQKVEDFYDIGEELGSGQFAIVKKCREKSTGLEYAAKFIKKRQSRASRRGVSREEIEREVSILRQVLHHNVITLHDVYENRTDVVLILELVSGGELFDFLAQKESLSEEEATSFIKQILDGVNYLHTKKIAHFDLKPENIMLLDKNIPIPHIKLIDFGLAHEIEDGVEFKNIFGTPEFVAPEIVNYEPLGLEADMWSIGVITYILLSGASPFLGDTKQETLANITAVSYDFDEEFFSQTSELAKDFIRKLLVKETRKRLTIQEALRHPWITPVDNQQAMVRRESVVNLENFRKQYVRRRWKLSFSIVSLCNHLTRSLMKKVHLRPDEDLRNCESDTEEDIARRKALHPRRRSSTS

[9] = biological target: Serine/threonine-protein kinase 26 (Homo sapiens, UniProt Q9P289); test: Selectivity interaction (ActivX KiNativ screen (kinase selectivity in THP-1 cell lysates)) EUB0000639a STK26; assay type: subcellular; settings: lysate
Serine/threonine-protein kinase 26, sequence (Q9P289 2-416 limits assumed): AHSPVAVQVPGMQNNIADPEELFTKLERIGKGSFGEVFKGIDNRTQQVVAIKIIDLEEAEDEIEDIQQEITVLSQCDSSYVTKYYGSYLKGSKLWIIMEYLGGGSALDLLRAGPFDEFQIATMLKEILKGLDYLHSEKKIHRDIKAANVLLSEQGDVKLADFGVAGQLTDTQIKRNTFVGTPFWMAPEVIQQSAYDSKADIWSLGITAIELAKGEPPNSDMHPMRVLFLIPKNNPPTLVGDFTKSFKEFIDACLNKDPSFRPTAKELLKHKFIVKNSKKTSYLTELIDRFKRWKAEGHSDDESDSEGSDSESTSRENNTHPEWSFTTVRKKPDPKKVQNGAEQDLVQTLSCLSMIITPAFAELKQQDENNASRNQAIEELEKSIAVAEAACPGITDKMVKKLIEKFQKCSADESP

[10] = biological target: Cyclin-dependent kinase 16 (Homo sapiens) (UniProt Q00536); test: Selectivity interaction (ActivX KiNativ screen (kinase selectivity in THP-1 cell lysates)) EUB0000639a CDK16; assay type: subcellular; settings: lysate, at 0.01 µM
Cyclin-dependent kinase 16 (Homo sapiens), sequence (Q00536 whole entry): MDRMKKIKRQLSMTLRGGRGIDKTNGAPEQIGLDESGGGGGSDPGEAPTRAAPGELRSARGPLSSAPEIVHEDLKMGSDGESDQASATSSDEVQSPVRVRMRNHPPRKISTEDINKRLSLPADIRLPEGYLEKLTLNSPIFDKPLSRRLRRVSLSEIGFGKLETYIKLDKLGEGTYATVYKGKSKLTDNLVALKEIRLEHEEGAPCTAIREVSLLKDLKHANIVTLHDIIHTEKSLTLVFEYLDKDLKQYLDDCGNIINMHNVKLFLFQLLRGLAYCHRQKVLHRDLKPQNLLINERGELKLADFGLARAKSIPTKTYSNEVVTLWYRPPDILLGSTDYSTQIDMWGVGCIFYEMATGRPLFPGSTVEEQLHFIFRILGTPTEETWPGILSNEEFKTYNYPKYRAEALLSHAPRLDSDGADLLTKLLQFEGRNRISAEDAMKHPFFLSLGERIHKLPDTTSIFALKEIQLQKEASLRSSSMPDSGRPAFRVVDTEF

[11] = biological target: T3, Aurora kinase A (Homo sapiens) (UniProt O14965); test: Selectivity interaction (ActivX KiNativ screen (kinase selectivity in THP-1 cell lysates)) EUB0000639a STK6; assay type: subcellular; settings: lysate, at 1 µM
T3 sequence (whole entry): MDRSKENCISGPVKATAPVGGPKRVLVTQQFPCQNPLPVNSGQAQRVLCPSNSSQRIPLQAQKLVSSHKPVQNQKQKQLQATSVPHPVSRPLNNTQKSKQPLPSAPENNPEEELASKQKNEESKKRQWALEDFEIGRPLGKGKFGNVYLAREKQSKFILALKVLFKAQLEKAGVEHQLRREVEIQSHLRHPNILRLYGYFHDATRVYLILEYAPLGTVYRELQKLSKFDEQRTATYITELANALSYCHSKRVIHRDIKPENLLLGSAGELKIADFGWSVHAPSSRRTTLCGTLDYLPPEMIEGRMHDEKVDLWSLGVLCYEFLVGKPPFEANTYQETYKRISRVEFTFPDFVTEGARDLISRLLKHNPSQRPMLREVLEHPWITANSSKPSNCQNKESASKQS

[12] = biological target: RAC-alpha serine/threonine-protein kinase (Homo sapiens, UniProt P31749); test: Selectivity interaction (KinomeScan (DiscoverX)) EUB0000595a AKT1; settings: at 10 µM
RAC-alpha serine/threonine-protein kinase, sequence (P31749 whole entry): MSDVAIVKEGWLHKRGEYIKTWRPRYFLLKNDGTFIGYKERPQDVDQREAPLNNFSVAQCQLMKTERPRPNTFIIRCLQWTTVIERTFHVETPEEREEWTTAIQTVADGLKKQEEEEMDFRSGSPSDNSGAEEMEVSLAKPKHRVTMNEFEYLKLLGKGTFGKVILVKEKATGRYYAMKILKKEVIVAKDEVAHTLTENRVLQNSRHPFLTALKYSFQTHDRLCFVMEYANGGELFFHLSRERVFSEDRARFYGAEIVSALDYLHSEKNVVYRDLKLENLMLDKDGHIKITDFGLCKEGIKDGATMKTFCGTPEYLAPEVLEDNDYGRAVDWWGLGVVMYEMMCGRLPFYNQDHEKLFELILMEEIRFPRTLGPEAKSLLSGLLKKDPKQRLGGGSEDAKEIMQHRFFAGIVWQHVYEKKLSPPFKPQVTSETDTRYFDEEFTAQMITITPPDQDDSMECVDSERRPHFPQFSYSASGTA

[13] = biological target: Ribosomal protein S6 kinase alpha-6 (Homo sapiens, UniProt Q9UK32); test: Selectivity interaction (KinomeScan (DiscoverX)) EUB0000618a RPS6KA6; settings: at 10 µM
Ribosomal protein S6 kinase alpha-6, sequence (Q9UK32 whole entry): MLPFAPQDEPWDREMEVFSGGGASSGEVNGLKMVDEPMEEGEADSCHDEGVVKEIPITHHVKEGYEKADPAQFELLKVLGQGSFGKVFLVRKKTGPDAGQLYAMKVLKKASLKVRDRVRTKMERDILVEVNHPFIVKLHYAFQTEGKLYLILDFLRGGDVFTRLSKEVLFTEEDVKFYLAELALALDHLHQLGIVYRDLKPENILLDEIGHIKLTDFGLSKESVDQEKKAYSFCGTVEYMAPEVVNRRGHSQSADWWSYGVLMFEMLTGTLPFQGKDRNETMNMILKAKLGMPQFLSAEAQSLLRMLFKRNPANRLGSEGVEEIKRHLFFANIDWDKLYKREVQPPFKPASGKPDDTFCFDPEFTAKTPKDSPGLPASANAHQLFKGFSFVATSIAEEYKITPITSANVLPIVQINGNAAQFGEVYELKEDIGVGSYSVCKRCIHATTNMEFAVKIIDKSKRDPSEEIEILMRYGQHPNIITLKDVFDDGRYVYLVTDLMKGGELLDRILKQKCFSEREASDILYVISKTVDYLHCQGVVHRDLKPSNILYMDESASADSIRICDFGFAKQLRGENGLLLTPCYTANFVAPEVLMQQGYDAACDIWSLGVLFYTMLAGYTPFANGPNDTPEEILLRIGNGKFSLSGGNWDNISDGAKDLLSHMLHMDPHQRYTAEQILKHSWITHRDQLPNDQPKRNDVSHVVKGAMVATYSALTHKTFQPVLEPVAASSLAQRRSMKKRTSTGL

Protein arginine N-methyltransferase 8, sequence (Q9NR22 2-394 limits assumed): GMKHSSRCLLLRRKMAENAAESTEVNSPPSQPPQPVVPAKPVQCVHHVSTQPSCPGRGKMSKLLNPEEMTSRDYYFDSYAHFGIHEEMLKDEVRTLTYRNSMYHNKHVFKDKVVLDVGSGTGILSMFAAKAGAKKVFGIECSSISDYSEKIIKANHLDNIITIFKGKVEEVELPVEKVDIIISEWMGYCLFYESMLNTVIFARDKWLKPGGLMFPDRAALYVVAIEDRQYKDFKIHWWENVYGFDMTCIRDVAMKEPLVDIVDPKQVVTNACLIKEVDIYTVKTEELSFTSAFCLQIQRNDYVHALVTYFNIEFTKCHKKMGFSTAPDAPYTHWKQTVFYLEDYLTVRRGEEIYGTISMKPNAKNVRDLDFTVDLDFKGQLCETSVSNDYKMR

Structure (SMILES): COCCN1CCC(c2cc(CN(C)C(=O)c3cccc(Oc4ccccc4)c3)ccn2)CC1
- % activity ([1]; at 1 µM): 50%
- % activity ([1]; at 10 µM): > 90%

Structure (SMILES): COc1cc(N(C)c2ccnc3ccc(C(F)(F)F)cc23)cc(OC)c1OC
- % binding [2]: 98%
- % binding [3]: 97%
- % binding [4]: 99%

Structure (SMILES): CCC(=O)N1CCN(c2ccc(-n3c(=O)ccc4cnc5ccc(-c6cnc7ccccc7c6)cc5c43)cc2C(F)(F)F)CC1
- % of control [5]: 8.1%

Structure (SMILES): CN(C)CC#Cc1ccc2[nH]c3c(c2c1)-c1nc(N)ncc1CCC3
- % of control [6]: 34%

Structure (SMILES): C=CC(=O)Nc1cccc(C(=O)Nc2ccc(Nc3cc(-c4[nH]c(SC)nc4C)ccn3)cc2)c1
- % of control ([7]; at 1 µM): 13%
- % of control ([7]; at 5 µM): 3%
- % of control ([8]; at 1 µM): 92%
- % of control ([8]; at 5 µM): 78%

Structure (SMILES): CC[C@@H]1[C@H](F)C(=O)N[C@@H]1COc1nccc2cc(C(N)=O)c(OC)cc12 [ZIMLOVISERTIB]
- % of inhibition ([9]; at 0.01 µM): -5.3%
- % of inhibition ([9]; at 0.04 µM): 19.1%
- % of inhibition ([9]; at 0.2 µM): -26.4%
- % of inhibition ([9]; at 1 µM): 10.2%
- % of inhibition ([9]; at 5 µM): 0.7%
- % of inhibition [10]: -0.6%
- % of inhibition [11]: 9.2%

Structure (SMILES): COCC(=O)NC/C=C/c1ccc2ncnc(Nc3ccc(Oc4ccc(C)nc4)c(C)c3)c2c1 [CP-724714]
- % of control [12]: 100%

Structure (SMILES): O[C@H]1CC[C@H](Nc2ncc3nc(Nc4c(F)cc(F)cc4F)n([C@H]4CCOC4)c3n2)CC1
- % of control [13]: 13%
